In publication PMC4501179, “Tuning properties and dynamic range of type 1 vomeronasal receptors” (Frontiers in Neuroscience, 2015):

These molecules were tested against T1, V1rj3 (Mus musculus, UniProt Q2TBB9) (assay: GCaMP2 calcium imaging of VNO slices from transgenic mice ectopically expressing V1rj3).
T1 sequence (Q2TBB9 1-308): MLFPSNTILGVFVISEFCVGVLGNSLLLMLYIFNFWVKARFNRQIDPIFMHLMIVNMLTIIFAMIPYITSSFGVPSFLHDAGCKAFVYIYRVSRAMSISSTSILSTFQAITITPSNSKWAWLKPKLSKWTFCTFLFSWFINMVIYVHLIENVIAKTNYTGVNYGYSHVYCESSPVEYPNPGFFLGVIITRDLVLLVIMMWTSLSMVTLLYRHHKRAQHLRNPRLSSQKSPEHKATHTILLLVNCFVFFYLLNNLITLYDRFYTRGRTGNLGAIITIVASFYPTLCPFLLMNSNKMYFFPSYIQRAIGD

Row | Structure (SMILES) | GCaMP2 calcium imaging of VNO slices from transgenic mice ectopically expressing
1 | C[C@]12CC[C@@H]3c4ccc(OS(=O)(=O)O)cc4CC[C@H]3[C@@H]1CC[C@@H]2OS(=O)(=O)O [E1050, 1, 3, 5(10)-estratrien-3, 17β-diol disulfate] | 10^−10 M
2 | C[C@]12CC[C@@H]3c4ccc(OS(=O)(=O)O)cc4CC[C@H]3[C@@H]1CC[C@@H]2O [E1100, 17β-estradiol 3-sulfate] | 10^−5 M
3 | C[C@]12CC[C@@H]3c4ccc(O)cc4CC[C@H]3[C@@H]1CC[C@@H]2OS(=O)(=O)O [E1103, 1,3, 5(10)-estratrien-3, 17β-diol 17-sulfate] | 10^−10 M
4 | C[C@]12CC[C@H]3[C@@H](CC=C4C[C@@H](OS(=O)(=O)O)CC[C@@]43C)[C@@H]1CC[C@@H]2OS(=O)(=O)O [A7864, 5-androsten-3β, 17β-diol-disulfate] | 10^−5 M
